According to patent US20220072022A1, “ANTI-AGING AGENT OR LIFE-EXTENDING AGENT” (StaGen Co., Ltd., priority 2019, published 2022):

How the values were obtained:
[1] = system: mitochondria of the muscle of C. elegans (N2); assay: Effect of febuxostat on mitochondrial morphology in nematode muscle, electron microscopy (Example 3); assay type: in vivo; settings: cultured 18 days in the presence of 20 μg/mL of febuxostat, compared with FBX(−), FIG. 5
Method: The effect of febuxostat on lifespan was examined using a wild type strain (N2, Bristrol) of C. elegans as a nematode. In addition, mitochondria of the nematode cultured in the absence and presence of febuxostat were compared under electron microscopy.
On the 18th day of culturing, nematodes were fixed by the following method. An M9 buffer comprising 8% ethanol was dropped on a slide glass, and the nematodes were placed therein and allowed to stand until the nematodes stopped moving (about 5 minutes). Next, a fixing solution was placed on another slide glass, and the nematodes that had stopped moving were transferred to the fixing solution. The fixing solution comprises 2% paraformaldehyde+2% glutaraldehyde/0.1M phosphate buffer (pH 7.4), and was adjusted prior to use.
Subsequently, a 22 G injection needle was used to cut the nematodes in the following procedure.
First, the cranial side was cut from the pharynx, and then amputation was performed around Vulva. In this experiment, in order to observe the mitochondria of the muscle behind Vulva with an electron microscope, only the caudal side was collected and placed in an Eppendorf tube comprising a fixing solution (4° C.)
Observation with an electron microscope was carried out by requesting the Hanaichi UltraStructure Research Institute (Okazaki City, Aichi Prefecture) using an electron microscope HITACHI H-7600 (100 kV).

[2] = system: C. elegans wild type strain (N2, Bristrol); assay: Extension of C. elegans (nematode) lifespan by febuxostat, wild type strain (Example 1); assay type: in vivo; settings: wild type strain N2, febuxostat 10 mg/ml, 20° C., FIG. 2
Method: (§1) Extension of lifespan by febuxostat was examined using a wild type strain (N2, Bristrol) and a daf-16 gene (nematode ortholog of human transcription factor FOXO; a typical example of shortened lifespan in nematode variant due to a transcription factor that is suppressed by insulin signals) variant strain (mu86). Both strains were bred at 20° C.
(§2) In order to keep the developmental stage of the strains used for lifespan measurement constant, it was waited until food (Escherichia coli) was exhausted and growth of first instar larvae stopped. The nematode was cut and planted together with agar in a petri dish with food.
(§3) Ampicillin (100 μg/ml) was added to a 6 cm NGM plate (standard medium for nematode culture) to inhibit the growth of the food Escherichia coli strain and its associated metabolism, and OP50 (the food Escherichia coli strain) and FBX were added ([…]).
(§4) When the cut and planted nematodes became adults, they were washed out of the petri dish using M9 buffer and collected. The nematodes were suspended in Eppendorf tubes. An equal amount of bleach solution (a mixture of 4N NaOH, hypochlorous acid solution, and M9 buffer at a ratio of 2:3:5) to the nematode suspension was added and mixed. […]
(§5) Life or death was determined for each individual every other day, and the data was recorded. […]
(§6) The lifespan tracking was completed when it was determined that all nematodes had died.

[3] = system: C. elegans wild type strain (N2, Bristrol); assay: Effect of febuxostat on nematode lifespan, UV-killed Escherichia coli plus kanamycin (Example 3); assay type: in vivo; settings: N2, febuxostat 5, 10, 20 μg/mL, FIG. 4
Method: The effect of febuxostat on lifespan was examined using a wild type strain (N2, Bristrol) of C. elegans as a nematode. In addition, mitochondria of the nematode cultured in the absence and presence of febuxostat were compared under electron microscopy. The culturing method and culturing conditions for nematodes (N2) were almost the same as those in Example 1 except for the method for treating the food added to the medium. Generally, Escherichia coli is added to the NGM plate as food for nematodes; however, when Escherichia coli grows, it may affect metabolites, etc. Therefore, a method of adding the antibiotic ampicillin to stop the growth of Escherichia coli is performed. However, it cannot be completely denied that the presence of ampicillin in the NGM plate had some effect. Therefore, instead of adding ampicillin, Escherichia coli was killed by being irradiated with ultraviolet rays, and kanamycin was further added. In this way, Escherichia coli as food was treated differently from Example 1, and it was checked whether the same experimental results as in Example 1 could be obtained. The concentration of febuxostat added to the NGM plate was 5, 10, 20 μg/mL.

[4] = system: C. elegans daf-16 gene variant strain (mu86); assay: Extension of C. elegans (nematode) lifespan by febuxostat, daf-16 variant strain (Example 1); assay type: in vivo
Method: as §1, §2, §3, §4, §5, §6

C. elegans = settings: Non-Patent Documents 13 to 16; cited from earlier work

| Compound | morphology of mitochondria in the muscle [1] | lifespan [2] | lifespan of nematodes [3] | lifespan compared with the wild type strain ([4]; daf-16 gene variant strain (mu86) with febuxostat) | lifespan ([4]; daf-16 gene variant strain (mu86), febuxostat 10 mg/ml, 20° C., FIG. 3) | lifespan in C. elegans (C. elegans) |
| --- | --- | --- | --- | --- | --- | --- |
| Cc1nc(-c2ccc(OCC(C)C)c(C#N)c2)sc1C(=O)O [febuxostat] | morphology of mitochondria is maintained almost normally | showed an extension of lifespan | lifespan of nematodes is extended | did not reach the same length of lifespan as that of the wild type strain | showed an extension of lifespan | – |
| CN(C)C(=N)N=C(N)N [metformin] | – | – | – | – | – | prolongs the lifespan |
